The target of assay [1] is α4β1 integrin (Homo sapiens, UniProt P05556+P13612). The assay is described as follows: α4β1 integrin-dependent Mn+2 stimulated M16B adhesion to rCS1. Format: cell-based. The arrangement: endogenous in cells. To be noted: soluble peptide.
Assay [2] deals with peripheral blood mononuclear cells and spleen cells. To be noted: reported, Wahl et al.; cited from earlier work.
For assay [3] the following is noted: in vivo rat model, reported; cited from earlier work.
In assay [4] the test system is VCAM. To be noted: reported; cited from earlier work.
Assay [5] deals with α2β1 and α3β1 integrin. Description: Inhibition of α2β1, α3β1 integrin dependent human melanoma M14#5 cell adhesion to laminin and type IV collagen. The class given is cell-based. To be noted: 0.5 mg/ml peptide (0.42 mM), 30 minutes. How it is done:
An experiment was conducted to examine the ability of FN-C/H V+Y (SEQ ID NO:1) to inhibit α2β1, α3β1 integrin dependent cell adhesion using an assay based on human melanoma cells (M14#5).
Laminin, type IV collagen and BSA were coated overnight in a 96 well microtiter plate at 10 μg/ml and blocked with 0.3% BSA. M14#5 cells were preincubated with 0.5 mg/ml of peptide (equivalent to 0.42 mM FN-C/H V and scrambled FN-C/H V and 0.17 mM CSI) and allowed to adhere to substrates for 30 minutes.

Assay [6] deals with T1, α5β1 integrin (Homo sapiens, UniProt P05556+P08648).
T1 construct: erythroleukemic cell line K562, which expresses α5β1 but not α4β1 integrin; endogenous in cells; host or cells: K562 cells
T1 sequence (P08648 42-894 limits assumed): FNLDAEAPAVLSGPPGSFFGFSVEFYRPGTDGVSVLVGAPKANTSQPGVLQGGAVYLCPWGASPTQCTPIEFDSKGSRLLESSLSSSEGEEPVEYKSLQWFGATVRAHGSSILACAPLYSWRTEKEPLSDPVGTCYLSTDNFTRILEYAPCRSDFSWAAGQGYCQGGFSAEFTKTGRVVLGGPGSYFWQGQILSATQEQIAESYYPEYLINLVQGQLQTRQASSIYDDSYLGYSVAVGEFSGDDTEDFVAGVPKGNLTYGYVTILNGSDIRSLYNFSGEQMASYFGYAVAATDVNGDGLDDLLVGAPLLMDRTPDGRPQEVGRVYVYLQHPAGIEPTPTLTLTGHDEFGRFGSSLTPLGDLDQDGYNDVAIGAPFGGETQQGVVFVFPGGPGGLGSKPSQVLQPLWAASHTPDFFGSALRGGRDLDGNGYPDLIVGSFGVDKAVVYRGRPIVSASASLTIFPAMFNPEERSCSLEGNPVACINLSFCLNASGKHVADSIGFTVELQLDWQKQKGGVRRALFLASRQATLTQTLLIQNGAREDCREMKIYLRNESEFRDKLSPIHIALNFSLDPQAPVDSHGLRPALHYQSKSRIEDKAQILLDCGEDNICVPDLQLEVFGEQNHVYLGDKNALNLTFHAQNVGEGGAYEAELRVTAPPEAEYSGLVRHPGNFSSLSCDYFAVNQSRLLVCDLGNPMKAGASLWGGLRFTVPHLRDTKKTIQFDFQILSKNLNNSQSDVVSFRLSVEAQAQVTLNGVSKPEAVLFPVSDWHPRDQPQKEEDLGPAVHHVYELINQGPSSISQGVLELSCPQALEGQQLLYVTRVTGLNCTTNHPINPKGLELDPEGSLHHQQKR
T1 sequence (P08648 895-1049 limits assumed): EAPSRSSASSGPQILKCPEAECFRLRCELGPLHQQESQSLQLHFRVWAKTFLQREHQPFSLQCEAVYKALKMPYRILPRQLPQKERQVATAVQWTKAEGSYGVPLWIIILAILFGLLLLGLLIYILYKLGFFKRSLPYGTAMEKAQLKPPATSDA
T1 sequence (P05556 21-798): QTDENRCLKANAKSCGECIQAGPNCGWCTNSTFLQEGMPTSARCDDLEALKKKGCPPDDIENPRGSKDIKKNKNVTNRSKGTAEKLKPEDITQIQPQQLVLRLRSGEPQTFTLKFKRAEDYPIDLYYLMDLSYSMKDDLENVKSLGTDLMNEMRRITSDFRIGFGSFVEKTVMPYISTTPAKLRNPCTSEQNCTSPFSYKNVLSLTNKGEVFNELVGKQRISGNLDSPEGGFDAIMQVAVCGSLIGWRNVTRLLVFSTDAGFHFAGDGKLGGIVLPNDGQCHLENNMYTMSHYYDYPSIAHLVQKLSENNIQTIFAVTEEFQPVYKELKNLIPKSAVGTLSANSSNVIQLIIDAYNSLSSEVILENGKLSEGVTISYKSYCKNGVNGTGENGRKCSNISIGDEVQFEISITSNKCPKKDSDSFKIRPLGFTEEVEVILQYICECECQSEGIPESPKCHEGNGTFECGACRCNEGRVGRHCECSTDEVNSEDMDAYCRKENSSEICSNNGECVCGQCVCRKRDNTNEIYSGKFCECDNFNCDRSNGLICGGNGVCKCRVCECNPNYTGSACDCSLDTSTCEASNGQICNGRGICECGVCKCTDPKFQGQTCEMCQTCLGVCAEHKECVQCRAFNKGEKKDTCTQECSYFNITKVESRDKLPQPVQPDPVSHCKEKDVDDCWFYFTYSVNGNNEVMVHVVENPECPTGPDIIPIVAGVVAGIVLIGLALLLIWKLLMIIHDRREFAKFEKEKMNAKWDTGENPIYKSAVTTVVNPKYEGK
The assay is described as follows: Inhibition of α5β1 integrin dependent Mn+2 stimulated adhesion of K562 cells to fibronectin (FN). Format: cell-based. Here is the method: The cell adhesion assay was carried out as described above. […] Each data point represents the mean of triplicate determinations and the error bars represent the standard deviation of the mean. The solid black line represents adhesion to the negative control substrate, BSA.

In assay [7] the target is T2, α1β2 (LFA-1) integrin (Homo sapiens, UniProt P05107+P20701).
T2 construct: the B-cell line M16B (which both express functional α4β1 and α1β2 integrin); endogenous in cells; host or cells: M16B B-cell line
T2 sequence (P20701 26-1170): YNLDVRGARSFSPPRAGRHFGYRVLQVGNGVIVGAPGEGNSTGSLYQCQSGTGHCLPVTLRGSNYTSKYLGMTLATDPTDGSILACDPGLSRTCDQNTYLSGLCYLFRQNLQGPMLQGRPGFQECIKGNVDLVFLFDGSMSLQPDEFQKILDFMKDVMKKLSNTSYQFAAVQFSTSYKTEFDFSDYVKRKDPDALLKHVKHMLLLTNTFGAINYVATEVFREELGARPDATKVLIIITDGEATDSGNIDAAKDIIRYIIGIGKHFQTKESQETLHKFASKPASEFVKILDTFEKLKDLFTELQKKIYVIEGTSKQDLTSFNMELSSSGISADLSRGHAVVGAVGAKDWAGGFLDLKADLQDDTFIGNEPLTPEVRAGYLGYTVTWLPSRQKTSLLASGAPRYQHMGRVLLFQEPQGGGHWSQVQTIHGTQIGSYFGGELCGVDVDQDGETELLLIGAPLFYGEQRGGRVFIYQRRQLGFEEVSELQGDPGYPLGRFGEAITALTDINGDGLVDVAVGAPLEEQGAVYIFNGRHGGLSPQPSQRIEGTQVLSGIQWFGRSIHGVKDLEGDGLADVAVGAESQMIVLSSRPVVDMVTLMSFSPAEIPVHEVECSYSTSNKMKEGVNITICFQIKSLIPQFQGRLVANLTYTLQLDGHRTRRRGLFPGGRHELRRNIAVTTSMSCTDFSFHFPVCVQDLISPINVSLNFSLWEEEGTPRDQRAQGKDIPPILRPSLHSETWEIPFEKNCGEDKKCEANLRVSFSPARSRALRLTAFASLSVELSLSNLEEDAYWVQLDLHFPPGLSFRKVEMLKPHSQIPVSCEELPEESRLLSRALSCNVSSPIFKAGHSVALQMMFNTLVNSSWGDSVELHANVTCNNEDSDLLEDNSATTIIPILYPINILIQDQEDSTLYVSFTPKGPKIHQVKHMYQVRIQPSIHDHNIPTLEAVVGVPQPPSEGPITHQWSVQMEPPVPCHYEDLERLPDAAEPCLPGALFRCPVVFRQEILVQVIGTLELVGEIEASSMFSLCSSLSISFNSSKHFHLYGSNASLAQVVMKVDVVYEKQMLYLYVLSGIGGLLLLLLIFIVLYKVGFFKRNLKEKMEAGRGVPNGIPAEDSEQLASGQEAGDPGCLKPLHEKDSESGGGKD
T2 sequence (P05107 23-769): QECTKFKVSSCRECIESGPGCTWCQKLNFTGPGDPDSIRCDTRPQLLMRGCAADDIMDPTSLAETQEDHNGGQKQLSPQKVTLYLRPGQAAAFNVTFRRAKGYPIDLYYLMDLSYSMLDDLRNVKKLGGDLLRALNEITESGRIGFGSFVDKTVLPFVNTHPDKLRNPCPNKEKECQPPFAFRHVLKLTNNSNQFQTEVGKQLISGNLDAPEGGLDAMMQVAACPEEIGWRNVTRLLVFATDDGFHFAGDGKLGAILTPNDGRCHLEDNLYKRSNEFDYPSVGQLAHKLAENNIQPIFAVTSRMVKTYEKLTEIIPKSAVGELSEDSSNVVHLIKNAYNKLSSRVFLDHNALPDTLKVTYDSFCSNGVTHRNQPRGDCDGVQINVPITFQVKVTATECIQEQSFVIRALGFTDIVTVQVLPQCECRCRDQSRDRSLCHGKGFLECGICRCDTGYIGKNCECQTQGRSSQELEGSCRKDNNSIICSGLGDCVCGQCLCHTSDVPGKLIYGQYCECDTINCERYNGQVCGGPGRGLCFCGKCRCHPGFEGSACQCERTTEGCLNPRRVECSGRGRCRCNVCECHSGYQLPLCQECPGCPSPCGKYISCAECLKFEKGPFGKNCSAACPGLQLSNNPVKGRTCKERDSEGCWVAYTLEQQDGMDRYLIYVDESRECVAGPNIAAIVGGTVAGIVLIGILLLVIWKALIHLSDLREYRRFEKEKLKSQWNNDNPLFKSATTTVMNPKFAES
The assay is described as follows: α1β2 (LFA-1) integrin dependent M16B adhesion to rICAM. The class given is cell-based. How it is done: To determine whether inhibition of adhesion by soluble FN-C/H V is specific for b1 integrins, the ability of this peptide to inhibit β2 integrin-dependent adhesion was also evaluated.

Assay [8] has as its target α5β1 integrin (UniProt P08648 42-1049; P05556 21-798). Description: cell-based or functional assay.

The source of these data is patent US6849712B1, “Peptides with β1 integrin subunit dependent cell adhesion modulating activity” (Regents of the University of Minnesota, priority 1998, dated 2005).

Where no end group is shown, it is not given here.

α4β1 integrin, sequence (P13612 34-1032): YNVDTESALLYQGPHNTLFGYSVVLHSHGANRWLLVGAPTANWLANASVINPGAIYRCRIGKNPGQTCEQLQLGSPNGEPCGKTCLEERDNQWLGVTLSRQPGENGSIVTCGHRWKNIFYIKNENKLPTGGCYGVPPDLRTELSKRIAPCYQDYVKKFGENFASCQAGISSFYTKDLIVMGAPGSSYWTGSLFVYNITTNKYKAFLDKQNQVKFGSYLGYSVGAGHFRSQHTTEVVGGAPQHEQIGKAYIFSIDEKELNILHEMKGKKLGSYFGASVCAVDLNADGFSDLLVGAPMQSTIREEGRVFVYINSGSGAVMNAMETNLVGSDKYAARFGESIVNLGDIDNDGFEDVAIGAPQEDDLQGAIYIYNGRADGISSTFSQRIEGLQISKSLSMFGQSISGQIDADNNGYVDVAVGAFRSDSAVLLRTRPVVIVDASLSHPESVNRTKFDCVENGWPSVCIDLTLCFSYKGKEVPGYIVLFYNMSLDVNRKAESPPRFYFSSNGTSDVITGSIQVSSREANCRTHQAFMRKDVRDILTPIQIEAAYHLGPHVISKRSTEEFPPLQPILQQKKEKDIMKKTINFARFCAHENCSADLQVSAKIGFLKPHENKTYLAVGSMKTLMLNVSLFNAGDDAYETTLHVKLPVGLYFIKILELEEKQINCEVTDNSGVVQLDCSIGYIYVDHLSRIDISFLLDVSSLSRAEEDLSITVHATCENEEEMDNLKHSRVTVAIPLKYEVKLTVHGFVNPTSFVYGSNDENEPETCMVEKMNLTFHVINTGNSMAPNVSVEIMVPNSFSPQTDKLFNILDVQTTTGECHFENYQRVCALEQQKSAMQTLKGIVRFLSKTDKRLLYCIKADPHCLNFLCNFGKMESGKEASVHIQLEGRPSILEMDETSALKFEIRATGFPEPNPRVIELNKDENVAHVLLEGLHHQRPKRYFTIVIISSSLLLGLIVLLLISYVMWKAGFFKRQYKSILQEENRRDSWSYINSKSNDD
α4β1 integrin, sequence (P05556 21-798): as the sequence (P05556 21-798) above

With “DELPQLVTLPHPNLHGPEILDVPST (listed as Homo sapiens) [CS1, fibronectin residues 1961-1985]”, in assay [1], the “inhibition of M16B adhesion to rCS1” value is on record as “completely inhibited”.

Turning to “KNNQKSEPLIGR-KKTY (KNNQKSEPLIGRKKTY; listed as Homo sapiens) [FN-C/H II+Y]”, the “inhibition of leukocyte adhesion to fibronectin in vitro” value (“inhibition of leukocyte adhesion” for short) in assay [2] is reported as “inhibit leukocyte adhesion to fibronectin in vitro”. In assay [3], the anti-inflammatory properties entry is given as “exhibit anti-inflammatory properties”.

On to WQPPRARIY-OH [SEQ ID NO:1], for which the “inhibition of adhesion to VCAM” value in assay [4] is recorded as “inhibit adhesion to VCAM”. Also, the “inhibition of M14#5 cell adhesion to laminin” value in assay [5] (laminin coated substrate) was “inhibited”. Moreover, the “inhibition of M14#5 cell adhesion to type IV collagen” value in assay [5] (type IV collagen coated substrate) is listed as “inhibited”. In assay [1], the “inhibition of M16B adhesion to rCS1” value is “completely inhibited”. In addition, the “inhibition of leukocyte adhesion” value in assay [2] is on record as “inhibit leukocyte adhesion to fibronectin in vitro”. The “inhibition of K562 adhesion to FN at the maximal concentration tested” value in assay [6] (0.84 mM peptide, K562 cells stimulated with 1 mM MnCl2) is listed as “completely inhibited”. Further, the IC50 in assay [6] (K562 cells stimulated with 1 mM MnCl2, adhesion to FN, read-out: half-maximal inhibitory concentration) was found to be 200 µM. The anti-inflammatory properties entry in assay [3] was “exhibit anti-inflammatory properties”. For the same molecule, the “inhibition of M16B adhesion to rICAM” value in assay [7] is “not inhibited”.

For the molecule “YEKPGSPPREV-VPRPRPGVY (YEKPGSPPREVVPRPRPGVY; listed as Homo sapiens) [FN-C/H I+Y]”, in assay [2], the “inhibition of leukocyte adhesion” value was “inhibit leukocyte adhesion to fibronectin in vitro”. Moreover, the anti-inflammatory properties entry in assay [3] is “exhibit anti-inflammatory properties”.

Regarding PRARIY, in assay [8], the “half-maximal inhibitory concentration (K562 adhesion to FN)” value was roughly 0.2 mM.
